Measurements from BindingDB's records for patent US20230271937 (Nuevolution, 2023).

Target: T1, Isoform 2 of Nuclear receptor ROR-gamma (RORgT) (Homo sapiens, UniProt P51449)
T1 sequence (P51449 whole entry): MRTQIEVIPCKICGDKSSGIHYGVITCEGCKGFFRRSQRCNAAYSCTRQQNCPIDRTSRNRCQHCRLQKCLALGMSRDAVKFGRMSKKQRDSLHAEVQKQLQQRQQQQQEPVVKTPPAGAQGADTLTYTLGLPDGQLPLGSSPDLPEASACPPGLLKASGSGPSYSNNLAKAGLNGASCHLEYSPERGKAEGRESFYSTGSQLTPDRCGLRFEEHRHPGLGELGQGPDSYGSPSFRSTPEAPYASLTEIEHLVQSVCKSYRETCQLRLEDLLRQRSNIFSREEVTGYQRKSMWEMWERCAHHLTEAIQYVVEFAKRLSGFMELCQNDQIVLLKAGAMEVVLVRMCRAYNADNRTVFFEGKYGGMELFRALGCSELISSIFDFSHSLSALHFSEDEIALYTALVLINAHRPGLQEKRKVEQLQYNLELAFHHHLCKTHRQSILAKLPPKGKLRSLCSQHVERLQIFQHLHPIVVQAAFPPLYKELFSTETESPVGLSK
Test: RORgamma Reporter Assay (Gal4)
Procedure: The HEK293 cell line is co-transfected transiently with two plasmids, one with the RORγ ligand-binding domain fused to galactose-responsive transcription factor (Gal4), and the other with the luciferase reporter gene and Gal binding sites (UAS). This construction allows to determine the RORγ activity in a cellular system through the measurement of luminescence. A suspension of RORγ reporter cells was dispensed into plates and cultured 2 h at 37° C. and 5% CO2. Media formulation consisted in DMEM/F-12 medium (Gibco) supplemented with 10% heat inactivated FBS (Sigma-Aldrich), non-essential aminoacids (Sigma-Aldrich), 2 mM Glutamax (Gibco) and 100 U/mL penicillin (Sigma-Aldrich). Dose-response curves with compounds were prepared in 100% DMSO and further diluted 100-fold in culture medium. […] The following formula was used: activity=100*[1−[x test compound/average vehicle] where the theoretical minimum reduction (0% reduction).

- EC50: 700 nM
Compound: CN(Cc1cccc(C#N)c1)c1ncnc(NC[C@H]2CCN(CC(N)=O)C[C@@H]2O)c1F [US20230271937, Example F2-08]
